In patent US20020091086A1, “Peptides that block viral infectivity and methods of use thereof” (priority 1999, published 2002):
Several values for one entry are separate records, joined by “and”; a condition that tells them apart may be missing. Equal entries are not always repeated. Peptide text beside a SMILES is read from it.

Assays:
[1] = test system: HIV-1 isolate p7261 (low AZT); assay: resistant HIV-1 isolates in PBMC, p24 ELISA; assay type: cell-based; conditions: GPG 100 μM, 14 days post infection
HIV-1 RNA = assay: Northern blot of HIV-1 RNA in infected H-9 cells; assay type: cell-based
Experimental: To study proviral DNA and viral RNA synthesis, DNA and RNA from HIV-1 infected H-9 cells cultured in the presence of a small peptide were prepared at various time points (0-48 h).
By Northern blot analysis, three RNA bands (9.2, 4.3, 2.0 kb) were detected 24-48 h after infection. The 9.2 kb RNA acts as both the genomic RNA and as the mRNA for the gag and pol genes. The 4.3 kb singly-spliced RNA represents at least the env gene, and the multiply-spliced 2 kb RNA encodes for the regulatory genes.

[2] = in vivo uptake, distribution and elimination of 14C GPG-NH2 in rats
Experimental: Further, the in vivo uptake of small peptides was analyzed in rats. Rats were fed ^14C GPG-NH2 and, after various time points, blood, urine, and tissue samples were collected from the animals. Samples of rat urine taken eight hours after feeding and rat plasma taken 30 minutes, two hours, and eight hours after feeding were separated on a TLC plate, as shown in FIG. 7 (designated urine8, rp0.5, rp2, and rp^8, accordingly). All the tissues were kept in −20° C. after necropsy before any assay was performed. […] of the tissue samples were collected from three different locations of each organ analyzed and the organ tissue was subsequently dissolved in 250 μl of tissue solublizer (OptiSolv, LKB-Wallac) at 45° C. for four to six hours. The homogenized tissue solutions were decolorized by the addition of 50 μl of 30% H2O2 and 100 μl of isopropanol before 3 ml of 0.05M HCl acidified scintillation cocktail (Luma Gel, Lumac/3M) was added. The radioactivity was determined with a beta scintillation counter (LKB-Wallac 1218 Rack Beta). The free/unbound GPG-NH2 in the plasma was collected by precipitation with one part of plasma and two parts of ethanol followed by incubation at −70° C. for one hour and centrifugation at 20,000×g for 15 min at 4° C. Blood cell samples were diluted with PBS (in the ratio of 2 parts of blood cells to 1 part of PBS) before 10 μl of the mixture was sampled and analyzed as the tissue samples. Five to 20 μl of plasma and urine samples were directly mixed with 3 ml of Ready Safe (Beckman) fluid before quantification. The values are expressed in nCi.
The calculation of the maximum uptake was determined as follows. The total feeding was 800 μCi/kg rat body weight (160 μCi in total per animal). On the assumption that the GPG-NH2 and its metabolities were evenly distributed in the body, the GPG-NH2 present in tissues would be the average counts/g from different tissues from the total number of animals studied divided by the total number of animals and multiplied by the body weight and the factor 0.9. This factor is derived to omit the blood volume since an estimate of blood volume is roughly 10% of the average body weight. For example (from the data of animals 1-5), if the total body weight for five rats was […] and the radioactivity detected from various tissues was (35+466+495+366+331) or 1,693 nCi and the radioactivity detected from blood was (93+130) or 223 nCi and the radioactivity detected in urine was 4, 015 nCi, the maximal intake of the small peptide can be calculated as: […]
In FIG. 9, the distribution of radioactivity between blood cells, plasma protein bound, as well as, non protein bound (free) plasma radioactivity is shown. The elimination of radioactivity from the plasma fraction is depicted in FIG. 10. […] Protein bound radioactivity was assayed after precipitation with two parts of 99.5% ethanol. From the uptake and distribution data and the TLC data above, the minimal uptake of intact GPG-NH2 recovered from the plasma was calculated and, in one hour after feeding of the rats, at least 1% of fed GPG-NH2 could be recovered as protein free GPG-NH2 in the plasma.

[3] = rats fed 14C GPG-NH2 800 μCi/kg, sacrificed after 4 hours, avg of animals 1-5
[4] = rats fed 14C GPG-NH2 800 μCi/kg, sacrificed after 8 hours, avg of animals 6-10
[5] = rats fed 14C GPG-NH2 800 μCi/kg, sacrificed after 8 hours, individual animals 6-10

NCC(=O)N1CCC[C@H]1C(=O)NCC(N)=O [GPG-NH2, glycyl-prolyl-glycine amide] (H-Gly-Pro-Gly-NH2)
% reduction [1]: (100%) | HIV-1 p24 [1]: <500 pg/mL | expression of HIV-1 RNAs (9.2, 4.3, 2.0 kb) (HIV-1 RNA; 20 μM, up to 48 h post infection): no inhibitory effect | HIV-1 RNA (HIV-1 RNA; 200 μM and 2,000 μM, 48 h after infection): a reduction of HIV-1 RNA was noticed | radioactivity in urine (used for uptake calculation) ([2]; animals 1-5, 4 hours): 4,015 nCi | radioactivity present in blood (calculated) ([2]; animals 1-5, 4 hours, body weight 207 g, factor 0.1): blood (93 + 130) * 207 * 0.1 = 4,642 nCi | radioactivity present in tissue (whole body, calculated) ([2]; animals 1-5, 4 hours, body weight 207 g, factor 0.9): (35 + 466 + 495 + 366 + 331)/5 * 207 * 0.9 = 63,240 nCi | change of radioactivity in the urine ([2]; between hours 4 and 8): double | portion of urine radioactivity that was intact GPG-NH2 ([2]; electrospray mass spectrometry of TLC spot): only a small portion | fed GPG-NH2 recovered as protein free GPG-NH2 in the plasma ([2]; one hour after feeding of the rats): at least 1% | maximal uptake ([2]; oral feeding 800 μCi/kg, animals 1-5, 4 hours): (63.24 + 4.642 + 4.015)/800 * 0.207 = 0.4342, or 43% maximal | radioactivity in Blood cells, avg [2, 3]: 93 nCi/ml or g tissue | radioactivity in Brain, avg [2, 3]: 35 nCi/ml or g tissue | radioactivity in Kidneys, avg [2, 3]: 466 nCi/ml or g tissue | radioactivity in Liver, avg [2, 3]: 495 nCi/ml or g tissue | radioactivity in Plasma, avg [2, 3]: 130 nCi/ml or g tissue | radioactivity in Spleen, avg [2, 3]: 366 nCi/ml or g tissue | radioactivity in Thymus, avg [2, 3]: 331 nCi/ml or g tissue | radioactivity in Total urine, avg [2, 3]: 4,015 nCi/ml or g tissue | radioactivity in Urine, avg [2, 3]: 5,660 nCi/ml or g tissue | radioactivity in Blood cells, avg [2, 4]: 78 nCi | radioactivity in Brain, avg [2, 4]: 30 nCi | radioactivity in Kidneys, avg [2, 4]: 415 nCi | radioactivity in Liver, avg [2, 4]: 494 nCi | radioactivity in Plasma, avg [2, 4]: 135 nCi | radioactivity in Spleen, avg [2, 4]: 293 nCi | radioactivity in Thymus, avg [2, 4]: 334 nCi | radioactivity in Total urine, avg [2, 4]: 8,426 nCi | radioactivity in Urine, avg [2, 4]: 3,525 nCi | radioactivity in Blood cells [2, 5]: 51 nCi and 72 nCi and 87 nCi and 71 nCi and 108 nCi | radioactivity in Brain [2, 5]: 43 nCi and 27 nCi and 28 nCi and 25 nCi and 29 nCi | radioactivity in Kidneys [2, 5]: 255 nCi and 488 nCi and 461 nCi and 401 nCi and 468 nCi | radioactivity in Liver [2, 5]: 537 nCi and 419 nCi and 478 nCi and 458 nCi and 578 nCi | radioactivity in Plasma [2, 5]: 138 nCi and 123 nCi and 135 nCi and 129 nCi and 148 nCi | radioactivity in Spleen [2, 5]: 307 nCi and 281 nCi and 257 nCi and 336 nCi and 285 nCi | radioactivity in Thymus [2, 5]: 340 nCi and 350 nCi and 323 nCi and 349 nCi and 311 nCi | radioactivity in Total urine [2, 5]: 6,463 nCi and 6,653 nCi and 11,173 nCi and 10,227 nCi and 7,613 nCi | radioactivity in Urine [2, 5]: 2,992 nCi and 5,040 nCi and 3,121 nCi and 4,297 nCi and 2,175 nCi | relative distribution of retained/immobilized GPG-NH2 and its metabolites in sampled tissues ([2]; rats, oral): highest in the liver followed by the kidney, followed by the spleen, followed by the thymus, followed by the brain
